Data from patent US4182707A, “Somatostatin analogues” (American Home Products Corporation, priority 1978, dated 1980).
Positions of bridges follow the written chain, without caps; N, C: chain ends. Non-standard residues stand in square brackets, D forms with d. Residues, ends and D or L forms follow the SMILES beside them.

Columns and labels:
total acid output = assay: Four hour pylorus ligated rat test (Shay et al.), anti-secretory activity; format: in vivo; settings: dosage between 0.25 and 2.0 mg/kg, p<0.05
Excerpt: Therefore, the product of Example 2 is also useful as an anti-secretory agent for the treatment of peptic ulcer disease.

growth hormone = assay: Arginine-stimulated growth hormone secretion in Nembutal-anesthetized rats; format: in vivo, Albino male rats; settings: 100 micrograms per kilogram subcutaneous; arginine into the heart 10 min later, blood 5 min after arginine; p<0.01; control 122±26 ng/ml
Experimental: The activity of the product of the preceding preparatory example, (des-Ala^1 -Gly^2, D-Lys^4, Trp^5, D-Trp^8)Somatostatin was determined by the following procedure:
Albino male rats were administered Nembutal intraperitoneally at a dose of 50 milligrams per kilogram. Fifteen minutes later a subcutaneous injection of the test compound or physiological saline was administered. Ten minutes later 0.5 millileters of arginine (300 milligrams per milliliter, pH 7.2) is injected into the heart. Five minutes after receipt of the arginine the rats are decapitated and blood is collected into trasylol-EDTA. […] Thus, (des-Ala^1 -Gly^2, D-Lys^4, Trp^5, D-Trp^8)Somatostatin, representative of the corresponding D-Arg^4,D-His^4, D-Orn^4, Phe^5, Tyr^5, Leu^5 and Met^5 analogues, their (Ala^1 -Gly^2)somatostatin analogues and the corresponding L-Trp^8 and D-Cys^14 analogues, is an effective agent for selectively reducing secretion of growth hormone at relatively high doses.

In the case of C[C@@H](O)[C@@H]1NC(=O)[C@H](Cc2ccccc2)NC(=O)[C@H]([C@@H](C)O)NC(=O)[C@H](CCCCN)NC(=O)[C@@H](Cc2c[nH]c3ccccc23)NC(=O)[C@H](Cc2ccccc2)NC(=O)[C@H](Cc2ccccc2)NC(=O)[C@H](Cc2c[nH]c3ccccc23)NC(=O)[C@@H](CCCCN)NC(=O)[C@@H](N)CSSC[C@@H](C(=O)O)NC(=O)[C@H](CO)NC1=O [Example 2, L-cysteinyl-D-lysyl-L-tryptophyl-L-phenylalanyl-L-phenylalanyl-D-tryptophyl-L-lysyl-L-threonyl-L-phenylalanyl-L-threonyl-L-seryl-L-cysteine cyclic (1-12) disulfide] (H-C[dK]WFF[dW]KTFTSC-OH; disulfide 1-12), the “inhibition of total acid output” value (total acid output) is reported as ~50% and the “growth hormone in blood” value (growth hormone) is reported as 24 ± 7 ng/mL.
